In patent publication US12729367B2, “Radial glia and astrocyte differentiation from human pluripotent stem cells” (The United States of America, as represented by the …, priority 2020, dated 2026):

Columns and labels:
iPSC-derived astrocytes = assay: Calcium transients in iPSC-derived astrocytes in response to stimuli; format: cell-based, human; conditions: DMSO as control treatment, FIG. 15
[1] = as described in Sidrauski et al.; cited from earlier work

SMILES | intracellular calcium levels (iPSC-derived astrocytes) | IC50 [1] | potency of trans-ISRIB relative to cis-ISRIB [1]
Nc1ncnc2c1ncn2[C@@H]1O[C@H](COP(=O)(O)OP(=O)(O)OP(=O)(O)O)[C@@H](O)[C@H]1O [ATP] | increase of intracellular calcium levels | – | –
[Cl-].[K+] [KCL] | increase of intracellular calcium levels | – | –
N[C@@H](CCC(=O)O)C(=O)O [glutamate] | increase of intracellular calcium levels | – | –
O=C(COc1ccc(Cl)cc1)N[C@H]1CC[C@H](NC(=O)COc2ccc(Cl)cc2)CC1 [trans-ISRIB, N,N′-((1r,4r)-cyclohexane-1,4-diyl)bis(2-(4-chlorophenoxy)acetamide)] | – | 5 nM | 100 fold
